{
  "source": "patent US20230355508A1",
  "about": "“TREATING NEUROPATHIC PAIN IN SPINAL CORD INJURED INDIVIDUALS” (CNS Biosciences, Inc., priority 2016, published 2023)",
  "origin": "cited, not measured here",
  "tested_on": "neuropathic pain following spinal cord injury",
  "details": "Finnerup et al., Scandinavian Journal of Pain 2009; for relief of neuropathic pain following spinal cord injury: patients with neuropathic pain following SCI",
  "note": "Like-named read-outs stand apart in the source and are kept apart here.",
  "data": [
    {"smiles": "CC[C@@H](C(N)=O)N1CCCC1=O", "note": "(single isomer, unassigned) [levetiracetam]", "values": [
      {"measurement": "relief of spasm severity following spinal cord injury", "setting": "patients with SCI", "value": "does not relieve"},
      {"measurement": "relief of neuropathic pain following spinal cord injury", "value": "does not relieve"},
      {"measurement": "relief of neuropathic pain following spinal cord injury", "setting": "listed as Levetiracetam", "value": "no analgesic or other benefit"}
    ]}
  ]
}
